Laboratory results taken from US20040023994A1 (priority 2002, published 2004).
Read-outs that look alike come from different tables or passages of the source.

Legend:
OVCAR-3 = conditions: OVCAR-3, Ovarian, NCI database, cited from earlier work; for CC50: read-out: LC50 (the source's name)
NCI/ADR-RES [1] = conditions: Breast, NCI database, cited from earlier work; for CC50: read-out: LC50 (the source's name)
SR = conditions: Leukemia, NCI database, cited from earlier work; for CC50: read-out: LC50 (the source's name)
KM12 = conditions: KM12, Colon, NCI database, cited from earlier work; for CC50: read-out: LC50 (the source's name)
[2] = cited from earlier work
HT29 = conditions: HT29, Colon, NCI database, cited from earlier work; for CC50: read-out: LC50 (the source's name)
HS 578T [3] = conditions: Breast, NCI database, cited from earlier work; for CC50: read-out: LC50 (the source's name)
NCI-H23 = conditions: NCI-H23, Non-Small Cell Lung, NCI database, cited from earlier work; for CC50: read-out: LC50 (the source's name)
SNB-19 = conditions: SNB-19, CNS, NCI database, cited from earlier work; for CC50: read-out: LC50 (the source's name)
CAKI-1 [4] = conditions: CAKI-1, Renal, NCI database, cited from earlier work; for CC50: read-out: LC50 (the source's name)
NCI-H460 [5] = conditions: NCI-H460, Non-Small Cell Lung, NCI database, cited from earlier work; for CC50: read-out: LC50 (the source's name)
ACHN = conditions: Renal, NCI database, cited from earlier work; for CC50: read-out: LC50 (the source's name)
IGR-OV1 = conditions: IGR-OV1, Ovarian, NCI database, cited from earlier work; for CC50: read-out: LC50 (the source's name)
786-0 = conditions: 786-0, Renal, NCI database, cited from earlier work; for CC50: read-out: LC50 (the source's name)
M14 = conditions: M14, Melanoma, NCI database, cited from earlier work; for CC50: read-out: LC50 (the source's name)
OVCAR-8 = conditions: OVCAR-8, Ovarian, NCI database, cited from earlier work; for CC50: read-out: LC50 (the source's name)
K-562 = conditions: K-562, Leukemia, NCI database, cited from earlier work; for CC50: read-out: LC50 (the source's name)
BT-549 = conditions: for CC50: read-out: LC50
COLO 205 = conditions: for CC50: read-out: LC50
SF-295 = conditions: for CC50: read-out: LC50
HS 578T [6] = conditions: 48 h; for CC50: read-out: LC50
HCT-15 = conditions: for CC50: read-out: LC50
NCI-H460 [7] = conditions: for CC50: read-out: LC50
CAKI-1 [8] = conditions: for CC50: read-out: LC50
HOP-62 = conditions: for CC50: read-out: LC50
SK-MEL-2 = conditions: for CC50: read-out: LC50
NCI/ADR-RES [9] = test system: NCI/ADR-RES
[10] = NCI-H460, Non-Small Cell Lung, 48 h
[11] = HOP-62, Non-Small Cell Lung, 48 h

Sc1ncnc2nc[nH]c12 [6-MP, 6-mercaptopurine]
GI50 (OVCAR-3): 0.71 µM | TGI (OVCAR-3): >100 µM | CC50 (OVCAR-3): > 100 µM | CC50 (NCI/ADR-RES [1]): > 100 µM | GI50 (NCI/ADR-RES [1]): 3.18 µM | TGI (NCI/ADR-RES [1]): >100 µM | CC50 (SR): > 100 µM | GI50 (SR): 1.27 µM | TGI (SR): >100 µM | GI50 (KM12): 7.31 µM | TGI (KM12): >100 µM | CC50 (KM12): > 100 µM | dose absorbed after oral administration [2]: ≤ 37% | GI50 (HT29): 3.97 µM | TGI (HT29): >100 µM | CC50 (HT29): > 100 µM | CC50 (HS 578T [3]): > 100 µM | GI50 (HS 578T [3]): 15.7 µM | TGI (HS 578T [3]): >100 µM | GI50 (NCI-H23): 3.74 µM | TGI (NCI-H23): >100 µM | CC50 (NCI-H23): > 100 µM | GI50 (SNB-19): > 100 µM | TGI (SNB-19): >100 µM | CC50 (SNB-19): > 100 µM | GI50 (CAKI-1 [4]): 2.36 µM | TGI (CAKI-1 [4]): >100 µM | CC50 (CAKI-1 [4]): > 100 µM | GI50 (NCI-H460 [5]): 5.6 µM | TGI (NCI-H460 [5]): >100 µM | CC50 (NCI-H460 [5]): > 100 µM | CC50 (ACHN): > 100 µM | GI50 (ACHN): 6.3 µM | TGI (ACHN): >100 µM | GI50 (IGR-OV1): 8.59 µM | TGI (IGR-OV1): >100 µM | CC50 (IGR-OV1): > 100 µM | GI50 (786-0): 1.87 µM | TGI (786-0): >100 µM | CC50 (786-0): > 100 µM | GI50 (M14): 0.67 µM | TGI (M14): >100 µM | CC50 (M14): > 100 µM | GI50 (OVCAR-8): 2.44 µM | TGI (OVCAR-8): >100 µM | CC50 (OVCAR-8): > 100 µM | GI50 (K-562): 0.35 µM | TGI (K-562): >100 µM | CC50 (K-562): > 100 µM

Nc1nc2nc[nH]c2c(=S)[nH]1 [6-TG, 6-thioguanine]
GI50 (OVCAR-3): 0.71 µM | TGI (OVCAR-3): 6.68 µM | CC50 (OVCAR-3): > 100 µM | CC50 (NCI/ADR-RES [1]): > 100 µM | GI50 (NCI/ADR-RES [1]): 0.59 µM | TGI (NCI/ADR-RES [1]): 35.6 µM | CC50 (SR): > 100 µM | GI50 (SR): 0.19 µM | TGI (SR): 17.9 µM | GI50 (KM12): 1.72 µM | TGI (KM12): 31.5 µM | CC50 (KM12): > 100 µM | dose absorbed after oral administration [2]: up to 46% | GI50 (HT29): 1.13 µM | TGI (HT29): >100 µM | CC50 (HT29): > 100 µM | CC50 (HS 578T [3]): > 100 µM | GI50 (HS 578T [3]): 7.26 µM | TGI (HS 578T [3]): >100 µM | GI50 (NCI-H23): 1.06 µM | TGI (NCI-H23): 22.9 µM | CC50 (NCI-H23): > 100 µM | GI50 (SNB-19): 78.5 µM | TGI (SNB-19): >100 µM | CC50 (SNB-19): > 100 µM | GI50 (CAKI-1 [4]): 0.53 µM | TGI (CAKI-1 [4]): 15.6 µM | CC50 (CAKI-1 [4]): > 100 µM | GI50 (NCI-H460 [5]): 0.66 µM | TGI (NCI-H460 [5]): 20.0 µM | CC50 (NCI-H460 [5]): > 100 µM | CC50 (ACHN): > 100 µM | GI50 (ACHN): 1.93 µM | TGI (ACHN): >100 µM | GI50 (IGR-OV1): 4.79 µM | TGI (IGR-OV1): >100 µM | CC50 (IGR-OV1): > 100 µM | GI50 (786-0): 0.82 µM | TGI (786-0): >100 µM | CC50 (786-0): > 100 µM | GI50 (M14): 0.58 µM | TGI (M14): 14.3 µM | CC50 (M14): > 100 µM | GI50 (OVCAR-8): 0.69 µM | TGI (OVCAR-8): 60.0 µM | CC50 (OVCAR-8): > 100 µM | GI50 (K-562): 0.4 µM | TGI (K-562): 70.8 µM | CC50 (K-562): > 100 µM

CC(=O)C=CSc1ncnc2nc[nH]c12 [cis-AVTP, 6-(2-acetylvinylthio) purine]
TGI (BT-549; BT-549, Breast, 48 h): 3.48 µM | GI50 (BT-549; Homo sapiens, BT-549, 48 h): 1.24 µM | CC50 (BT-549; Homo sapiens, BT-549, 48 h): 9.78 µM | TGI (COLO 205; COLO 205, Colon, 48 h): 1.70 µM | GI50 (COLO 205; Homo sapiens, COLO 205, 48 h): 0.46 µM | CC50 (COLO 205; Homo sapiens, COLO 205, 48 h): 4.74 µM | GI50 (SF-295; Homo sapiens, SF-295, 48 h): 0.56 µM | CC50 (SF-295; Homo sapiens, SF-295, 48 h): 57.8 µM | TGI (SF-295; SF-295, CNS, 48 h): 11.2 µM | TGI (HS 578T [6]; HS 578T, Breast): 8.79 µM | GI50 (HS 578T [6]; Homo sapiens, Hs-578T): 0.46 µM | CC50 (HS 578T [6]; Homo sapiens, Hs-578T): > 100 µM | TGI (HCT-15; HCT-15, Colon, 48 h): 5.98 µM | GI50 (HCT-15; Homo sapiens, HCT-15, 48 h): 1.88 µM | CC50 (HCT-15; Homo sapiens, HCT-15, 48 h): 41.3 µM | GI50 (NCI-H460 [7]; Homo sapiens, NCI-H460, 48 h): 0.68 µM | CC50 (NCI-H460 [7]; Homo sapiens, NCI-H460, 48 h): 38.6 µM | TGI (NCI-H460 [7]; [10]): 8.71 µM | TGI (CAKI-1 [8]; CAKI-1, Renal, 48 h): 0.55 µM | GI50 (CAKI-1 [8]; Homo sapiens, CAKI-1, 48 h): 0.11 µM | CC50 (CAKI-1 [8]; Homo sapiens, CAKI-1, 48 h): 2.85 µM | TGI (HOP-62; [11]): 21.2 µM | GI50 (HOP-62; Homo sapiens, HOP-62, 48 h): 0.4 µM | CC50 (HOP-62; Homo sapiens, HOP-62, 48 h): 88.9 µM | GI50 (SK-MEL-2; Homo sapiens, SK-MEL-2, 48 h): 0.48 µM | CC50 (SK-MEL-2; Homo sapiens, SK-MEL-2, 48 h): 40.7 µM | TGI (SK-MEL-2; SK-MEL-2, Melanoma, 48 h): 8.22 µM | TGI (NCI/ADR-RES [9]; Breast, 48 h): 2.79 µM | GI50 (NCI/ADR-RES [9]; Homo sapiens, 48 h): 0.51 µM | CC50 (NCI/ADR-RES [9]; Homo sapiens, 48 h, read-out: LC50): > 100 µM

CC(=O)C=CSc1nc(N)nc2nc[nH]c12 [trans-AVTG, 6-(2-acetylvinylthio) guanine]
GI50 (BT-549; BT-549, Breast, 48 h): 0.39 µM | TGI (BT-549; BT-549, Breast, 48 h): 5.75 µM | CC50 (BT-549; BT-549, Breast, 48 h): 43.1 µM | GI50 (COLO 205; COLO 205, Colon, 48 h): 1.87 µM | TGI (COLO 205; COLO 205, Colon, 48 h): 3.98 µM | CC50 (COLO 205; COLO 205, Colon, 48 h): 8.43 µM | GI50 (SF-295; SF-295, CNS, 48 h): 0.43 µM | TGI (SF-295; SF-295, CNS, 48 h): 0.92 µM | CC50 (SF-295; SF-295, CNS, 48 h): 82.9 µM | GI50 (HS 578T [6]; HS 578T, Breast): 1.78 µM | TGI (HS 578T [6]; HS 578T, Breast): 26.9 µM | CC50 (HS 578T [6]; HS 578T, Breast): > 100 µM | GI50 (HCT-15; HCT-15, Colon, 48 h): 1.73 µM | TGI (HCT-15; HCT-15, Colon, 48 h): 19.4 µM | CC50 (HCT-15; HCT-15, Colon, 48 h): > 100 µM | GI50 (NCI-H460 [7]; [10]): 0.59 µM | TGI (NCI-H460 [7]; [10]): 3.57 µM | CC50 (NCI-H460 [7]; [10]): 49.4 µM | GI50 (CAKI-1 [8]; CAKI-1, Renal, 48 h): 0.16 µM | TGI (CAKI-1 [8]; CAKI-1, Renal, 48 h): 0.51 µM | CC50 (CAKI-1 [8]; CAKI-1, Renal, 48 h): 13.7 µM | GI50 (HOP-62; [11]): 1.62 µM | TGI (HOP-62; [11]): >100 µM | CC50 (HOP-62; [11]): > 100 µM | GI50 (SK-MEL-2; SK-MEL-2, Melanoma, 48 h): 1.02 µM | TGI (SK-MEL-2; SK-MEL-2, Melanoma, 48 h): 15.5 µM | CC50 (SK-MEL-2; SK-MEL-2, Melanoma, 48 h): 98.7 µM | GI50 (NCI/ADR-RES [9]; Breast, 48 h): 0.35 µM | TGI (NCI/ADR-RES [9]; Breast, 48 h): 7.40 µM | CC50 (NCI/ADR-RES [9]; read-out: LC50, Breast, 48 h): > 100 µM
